From patent US9957253B2, “Triaminopyrimidine compounds useful for preventing or treating malaria” (MMV MEDICINES FOR MALARIA VENTURE, priority 2014, dated 2018)
Structures can show the parent of a compound that is named as a salt. Where two headings read alike, the source gives them in different places.

What was measured:
[1] = test system: hepatocytes; assay: Metabolic stability assay (hepatocyte Clint), rat; assay type: in vitro ADME; conditions: 1 μM compound
Protocol: Metabolic Stability Assay (Rat/Human Hepatocyte Clint)
Viability of cryopreserved hepatocytes was determined using trypan blue and the cell concentration was adjusted to 10^6 cells per mL with Leibovitz L-15 Buffer. 1 μM compound (in Acetonitrile; 0.01% DMSO) was incubated with 500 μL of hepatocytes (1 million cells per mL) in a NUNC plate. Reaction was stopped at different time points (0, 5, 15, 30, 60, 90 and 120 min) by addition of 3 volumes of chilled acetonitrile to 100 μL of reaction mixture and centrifuged at 4° C. for 15 min. Supernatants were analyzed using LC-MS/MS for substrate depletion.

[2] = target: T1, human CYP 2D6 (Homo sapiens, UniProt P10635); assay: CYP inhibition assay, CYP 2D6; assay type: in vitro ADME
T1 construct: Mixture of 180 μL of 20 mg/mL HLM and 90 μL of substrate cocktail solution; from tissue; host or cells: human liver microsomes (HLM)
Protocol: (§1) This study was conducted using specific substrates for 5 major human CYP isozymes. These substrates were used as a cocktail (phenacetin, diclofenac, S-mephenytoin, bufuralol and midazolam which are predominantly metabolised by CYP 1A2, 2C9, 2C19, 2D6 and 3A4/5, respectively) at concentrations equivalent to their respective Km values. LC-MS-MS (MRM mode) was used to follow the formation of the CYP specific metabolites. A decrease in the formation of the metabolites in peak area to vehicle control was used to calculate the IC50 value. […] Test compound was used at 6 different concentrations ([…]) to estimate IC50.
(§2) The incubation was carried out in 96 deep well plates. Mixture of 180 μL of 20 mg/mL HLM and 90 μL of substrate cocktail solution was added to 15840 μL of phosphate buffer and 179 μL of this mixture was mixed with 1 μL of the test compound, inhibitor cocktail solution or vehicle in each well. The final concentration of DMSO:ACN in the assay mix was 0.3:0.7% v/v. The incubation plate was placed into the water bath and pre-warmed at 37° C. for 5 min before the reactions were started by the addition of 20 μL of 10 mmol/L NADPH solution in phosphate buffer. After the addition of NADPH, the incubation plate was incubated at 37° C. for a further 5 min. The reaction was quenched by the addition of 1 volume (200 μL) of cold ACN containing 3% formic acid and 40 nmol/L verapamil. The plates were kept on ice for 20 min and then centrifuged at 4000 rpm for 30 min to precipitate protein. The supernatant 180 μL was transferred to the analysis plate for LC/MS/MS analysis.

[3] = Blood:Plasma (BP) ratio, rat; assay type: in vitro ADME
[4] = target: CYP3A4 (Homo sapiens, UniProt P08684); assay: CYP inhibition assay, CYP 3A4; assay type: in vitro ADME; conditions: probe midazolam; human liver microsomes, substrate cocktail
Protocol: as §1, §2

[5] = test system: chloroquine sensitive NF54 strain of P. falciparum; assay: In vitro antiplasmodial activity (SYBR I), NF54 strain; assay type: cell-based, Plasmodium falciparum; conditions: Plasmodium falciparum
Protocol: Measuring In Vitro Antiplasmodial Activity
The test samples were tested in duplicate on two separate occasions against chloroquine sensitive NF54 (MRA-1000, MR4, ATCC, Manassas, Va.) and chloroquine-resistant K1 strains of P. falciparum. A modified method of Trager and Jensen was employed to maintain continuous in vitro cultures of asexual blood stages of P. falciparum (Trageret al., 1976, Science, 193, 673-675). Quantitative assessment of antiplasmodial activity in vitro was determined using the SYBR I method as described earlier (Johnson et al., 2007, Antimicrob. Agents Chemother., 51, 1926-1933).
The percent inhibition with respect to the drug-free control was plotted against the logarithm of drug concentration. The growth inhibition curves were fitted by nonlinear regression using the sigmoidal dose-response (variable slope) formula to yield the concentration-response curves. […] Chloroquine diphosphate (CQ) (Sigma), artesunate (Sigma), and pyrimethamine were used as reference drugs in all experiments.

[6] = Plasma protein binding assay (equilibrium dialysis), rat; assay type: in vitro ADME
Protocol: (§3) Plasma Protein Binding Assay
(§4) Protein binding is measured using the equilibrium dialysis technique. Compound is added to 10% plasma giving a concentration of 20 μM and dialysed with isotonic buffer for 18 hours at 37° C. The plasma and buffer solutions are analysed using generic LCUVMS and the first apparent binding constant for the compound derived. The binding constant is then used to determine the % free in 100% plasma.

[7] = Prediction of hepatic blood clearance (well stirred model), rat
[8] = target: T1, human CYP 2D6; assay: Time dependent CYP inhibition assay, CYP 2D6; assay type: in vitro ADME
[9] = Plasma protein binding assay (equilibrium dialysis), human; assay type: in vitro ADME
Protocol: as §3, §4

[10] = test system: Plasmodium berghei; assay: In vivo efficacy in the mouse malaria model (four day suppressive test); conditions: P. berghei infected mice, growth of parasites in blood
Protocol: In Vivo Efficacy in the Mouse Malaria Model In vivo efficacy against blood stages was measured in mice infected with Plasmodium berghei after four (once daily) days of dosing by oral route. Detailed protocol for this four day suppressive test is described in Fidock et al 2004, Nature Reviews Drug Discovery (3), p 509.

[11] = 3 mg/kg oral once daily for four days
[12] = 10 mg/kg oral once daily for four days
[13] = 30 mg/kg oral once daily for four days
[14] = human liver microsomes, substrate cocktail, read-out: IC50 CYP 2D6
[15] = NF54 strain, chloroquine sensitive, read-out: Pf IC50—NF54

Chain of CYP3A4 (P08684 2-503): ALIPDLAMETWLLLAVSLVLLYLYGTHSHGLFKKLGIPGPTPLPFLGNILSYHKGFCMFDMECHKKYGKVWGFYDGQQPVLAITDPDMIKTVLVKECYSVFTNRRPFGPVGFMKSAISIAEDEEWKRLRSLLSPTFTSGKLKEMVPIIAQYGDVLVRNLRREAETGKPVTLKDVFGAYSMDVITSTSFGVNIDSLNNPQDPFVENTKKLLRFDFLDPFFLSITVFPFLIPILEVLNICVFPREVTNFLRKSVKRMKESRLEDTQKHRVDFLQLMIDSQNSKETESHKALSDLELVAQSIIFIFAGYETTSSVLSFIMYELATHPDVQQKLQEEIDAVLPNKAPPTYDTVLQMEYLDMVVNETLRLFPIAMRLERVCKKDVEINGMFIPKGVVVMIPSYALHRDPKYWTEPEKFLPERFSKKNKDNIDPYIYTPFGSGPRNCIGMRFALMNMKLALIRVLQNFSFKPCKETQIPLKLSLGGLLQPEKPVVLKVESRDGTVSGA
T1 sequence (P10635 whole entry): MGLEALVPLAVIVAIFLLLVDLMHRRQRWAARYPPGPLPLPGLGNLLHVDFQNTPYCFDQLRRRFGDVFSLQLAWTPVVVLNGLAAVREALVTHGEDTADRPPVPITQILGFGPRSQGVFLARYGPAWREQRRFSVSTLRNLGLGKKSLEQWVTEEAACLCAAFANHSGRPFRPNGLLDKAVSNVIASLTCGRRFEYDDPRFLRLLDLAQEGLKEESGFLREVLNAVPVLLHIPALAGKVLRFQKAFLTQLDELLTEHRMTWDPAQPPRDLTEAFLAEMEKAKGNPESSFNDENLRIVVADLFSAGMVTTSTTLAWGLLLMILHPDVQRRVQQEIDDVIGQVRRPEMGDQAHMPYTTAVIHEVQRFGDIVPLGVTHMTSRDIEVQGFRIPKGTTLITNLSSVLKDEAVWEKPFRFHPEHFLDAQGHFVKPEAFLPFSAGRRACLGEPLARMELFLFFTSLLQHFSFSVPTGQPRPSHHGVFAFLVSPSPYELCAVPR

**Q.** For CCc1cc(Nc2ncc(N3CCN[C@H](C)C3)c(Nc3cc(C)n(C)n3)n2)nc(C)c1F [Example 7, (R)—N4-(1,5-dimethyl-1H-pyrazol-3-yl)-N2-(4-ethyl-5-fluoro-6-methylpyridin-2-yl)-5-(3-methylpiperazin-1-yl)pyrimidine-2,4-diamine dihydrochloride], which “Hep. Clint” value [1] is on record?
**A.** 5.6 μl/min/1E6

**Q.** What about the IC50 [2] of the same compound?
**A.** > 30 µM

**Q.** And the BP ratio [3]?
**A.** 2.2

**Q.** What about the IC50 at 5 min [4] of the same compound?
**A.** > 30 µM

**Q.** And the IC50 ([5]; NF54, read-out: Pf IC50—NF54)?
**A.** 0.027 µM

**Q.** What about the Fup [6] of the same compound?
**A.** 0.06

**Q.** What about the “Predicted CLh blood” value [7] of the same compound?
**A.** 1.452 L/h/kg

**Q.** And the IC50 [8]?
**A.** > 56 µM

**Q.** What about the Fup [9] of the same compound?
**A.** 0.03

**Q.** And the “% Inhibition” value [10, 11]?
**A.** 6%

**Q.** And the “% Inhibition” value [10, 12]?
**A.** 28%

**Q.** What about the “% Inhibition” value [10, 13] of the same compound?
**A.** 100%

**Q.** Which “Hep. Clint” value [1] does the source give for Cc1nc(Nc2ncc(N3CCN(C)[C@H](C)C3)c(Nc3cc(C)n(C)n3)n2)cc(C2CC2)c1F [Example 13, (R)—N2-(4-cyclopropyl-5-fluoro-6-methylpyridin-2-yl)-N4-(1,5-dimethyl-1H-pyrazol-3-yl)-5-(3,4-dimethylpiperazin-1-yl)pyrimidine-2,4-diamine] here?
**A.** 11.3 μl/min/1E6

**Q.** What about the IC50 [2, 14] of the same compound?
**A.** > 30 µM

**Q.** And the BP ratio [3]?
**A.** 1.06

**Q.** What about the IC50 at 5 min [4] of the same compound?
**A.** > 30 µM

**Q.** What about the IC50 [5, 15] of the same compound?
**A.** 0.009 µM

**Q.** What about the Fup [6] of the same compound?
**A.** 0.04

**Q.** And the “Predicted CLh blood” value [7]?
**A.** 1.128 L/h/kg

**Q.** And the IC50 [8]?
**A.** > 56 µM

**Q.** And the Fup [9]?
**A.** 0.03

**Q.** And the “% Inhibition” value [10, 11]?
**A.** 0%

**Q.** And the “% Inhibition” value [10, 12]?
**A.** 42%

**Q.** What about the “% Inhibition” value [10, 13] of the same compound?
**A.** 100%

**Q.** Which “Hep. Clint” value [1] does the source give for Cc1nc(Nc2ncc(N3CCN[C@H](C)C3)c(Nc3cnn(C)n3)n2)cc(C2CC2)c1Cl [Example 10, (R)—N2-(5-chloro-4-cyclopropyl-6-methylpyridin-2-yl)-N4-(2-methyl-2H-1,2,3-triazol-4-yl)-5-(3-methylpiperazin-1-yl)pyrimidine-2,4-diamine dihydochloride] here?
**A.** 8.3 μl/min/1E6

**Q.** And the IC50 [2, 14]?
**A.** > 30 µM

**Q.** What about the BP ratio [3] of the same compound?
**A.** 1.7

**Q.** And the IC50 at 5 min [4]?
**A.** > 30 µM

**Q.** What about the IC50 [5, 15] of the same compound?
**A.** 0.013 µM

**Q.** What about the Fup [6] of the same compound?
**A.** 0.04

**Q.** What about the “Predicted CLh blood” value [7] of the same compound?
**A.** 0.966 L/h/kg

**Q.** And the IC50 [8]?
**A.** > 56 µM

**Q.** What about the Fup [9] of the same compound?
**A.** 0.04

**Q.** And the “% Inhibition” value [10, 12]?
**A.** 60%

**Q.** What about the “% Inhibition” value ([10]; 15 mg/kg oral once daily for four days) of the same compound?
**A.** 75%

**Q.** What about the “% Inhibition” value [10, 13] of the same compound?
**A.** 100%
